Holding throughout (assay type): in vivo, human
One data set relates to 11β-HSD. Description: Clinical study: urinary free cortisol and GC/MS urinary steroid ratios confirming inhibition of 11β-HSD. How it is done: A clinical study was undertaken to assess the functional significance of 11β-HSD within the eye by oral administration of carbenoxolone, a known inhibitor of both 11β-HSD1 and 11β-HSD2. The study was undertaken on eight healthy male volunteers who were not on any systemic or topical medications and had no family history of glaucoma. Baseline intra-ocular pressure readings were measured using the same Goldmann applanation tonometer at 08:00, 12:00, 16:00 and 20:00 hours on two consecutive days. Systolic and diastolic blood pressures were also measured at each time point. Venous blood was analysed for serum electrolytes on day one and urine was collected for 24-hour urinary free cortisol and GC/MS for cortisol/cortisone ratios. The subjects then commenced a course of 100 mg carbenoxolone taken orally three times a day for seven consecutive days. The IOP measurements and blood pressure recordings were repeated at each time point on the third and seventh day of carbenoxolone ingestion (i.e. days five and nine of the study). Urea and electrolytes were also measured on these days and inhibition of 11β-HSD was confirmed by comparing the original urinary F/E ratio with that from urine aliquoted from a further 24-hour collection performed between days six and seven of ingestion. […] In addition, there was a significant decrease in the tetrahydrocortisol (THF)+allo-THF/tetrahydrocortisone (THE) ratio (pre-THF+allo-THF/THE=0.92±0.23, per-THF+allo-THF/THE=0.7±0.19, p=0.0012). This reflects the relative 11β-HSD1/HSD2 activities predominantly in the liver.

The test system of a further data set is healthy male volunteers. Description: Clinical study: intra-ocular pressure (Goldmann applanation tonometer) under oral carbenoxolone. Particulars: for reduction in IOP during the day (08:00 to 20:00 hrs): baseline reduction 0.38±1.16; for reduction in IOP during the day (08:00 to 20:00 hrs), percent: baseline 2.51%; for IOP of one subject vs days 1 and 2 (FIG. 3): both eyes. The procedure: A clinical study was undertaken to assess the functional significance of 11β-HSD within the eye by oral administration of carbenoxolone, a known inhibitor of both 11β-HSD1 and 11β-HSD2. The study was undertaken on eight healthy male volunteers who were not on any systemic or topical medications and had no family history of glaucoma. Baseline intra-ocular pressure readings were measured using the same Goldmann applanation tonometer at 08:00, 12:00, 16:00 and 20:00 hours on two consecutive days. Systolic and diastolic blood pressures were also measured at each time point. Venous blood was analysed for serum electrolytes on day one and urine was collected for 24-hour urinary free cortisol and GC/MS for cortisol/cortisone ratios. The subjects then commenced a course of 100 mg carbenoxolone taken orally three times a day for seven consecutive days. The IOP measurements and blood pressure recordings were repeated at each time point on the third and seventh day of carbenoxolone ingestion (i.e. days five and nine of the study). Urea and electrolytes were also measured on these days and inhibition of 11β-HSD was confirmed by comparing the original urinary F/E ratio with that from urine aliquoted from a further 24-hour collection performed between days six and seven of ingestion. […] There was no difference between each eye of each subject. The IOP was lower on day seven of ingestion (11.50±2.08) than on day three (12.48±1.48) compared with the mean baseline values (p<0.0001 for both days), the difference between days three and seven being significant (p<0.001). There was also a small reduction in intra-ocular pressure during the course of the day, i.e. from 08:00 hrs to 20:00 hrs (baseline reduction of0.38±1.16 (2.51%), p=0.076).

Data set [1] is described as follows: Clinical study: systolic and diastolic blood pressure and serum electrolytes. Particulars: throughout the study, 100 mg orally three times a day for seven days. How it is done: A clinical study was undertaken to assess the functional significance of 11β-HSD within the eye by oral administration of carbenoxolone, a known inhibitor of both 11β-HSD1 and 11β-HSD2. The study was undertaken on eight healthy male volunteers who were not on any systemic or topical medications and had no family history of glaucoma. Baseline intra-ocular pressure readings were measured using the same Goldmann applanation tonometer at 08:00, 12:00, 16:00 and 20:00 hours on two consecutive days. Systolic and diastolic blood pressures were also measured at each time point. Venous blood was analysed for serum electrolytes on day one and urine was collected for 24-hour urinary free cortisol and GC/MS for cortisol/cortisone ratios. The subjects then commenced a course of 100 mg carbenoxolone taken orally three times a day for seven consecutive days. The IOP measurements and blood pressure recordings were repeated at each time point on the third and seventh day of carbenoxolone ingestion (i.e. days five and nine of the study). Urea and electrolytes were also measured on these days and inhibition of 11β-HSD was confirmed by comparing the original urinary F/E ratio with that from urine aliquoted from a further 24-hour collection performed between days six and seven of ingestion.
There was no difference between each eye of each subject. […]

This is an account of results in US6548053B1, “Control of intra-ocular pressure” (The University of Birmingham, priority 1999, dated 2003).

With `CC1(C)[C@@H](OC(=O)CCC(=O)O)CC[C@]2(C)[C@H]3C(=O)C=C4[C@@H]5C[C@@](C)(C(=O)O)CC[C@]5(C)CC[C@@]4(C)[C@]3(C)CC[C@@H]12` [carbenoxolone], the “24-hour urinary free cortisol” value in the data set on 11β-HSD (24-hour urine between days six and seven of ingestion vs baseline) is on record as “no significant change”. Further, in the data set on 11β-HSD (24-hour urine between days six and seven of ingestion, pre-F/E 0.497±0.189, p=0.004), the “per-F/E (urinary cortisol/cortisone ratio by GC/MS)” value was 1.144±0.382. In addition, the “per-THF+allo-THF/THE ratio” value with 11β-HSD (urine on ingestion, pre value 0.92±0.23, p=0.0012) worked out at 0.7±0.19. Moreover, the “reduction in IOP during the day (08:00 to 20:00 hrs)” value in the data set on healthy male volunteers (day seven of ingestion, p=0.0006) worked out at 2.25±1.91; with healthy male volunteers (day three of ingestion, p=0.0058), 0.86±0.83. Moreover, the results for the “reduction in IOP during the day (08:00 to 20:00 hrs), percent” value in the data set with healthy male volunteers (day seven of ingestion) and in the data set on healthy male volunteers (day three of ingestion) were 17.31% and 6.51%, respectively. Besides, in the data set with healthy male volunteers (eight subjects, 100 mg orally three times a day, pre-IOP 14.7±1.39), the “per-IOP (mean IOP on ingesting carbenoxolone)” value amounted to 12.00±1.87. Also, in the data set with healthy male volunteers (eight subjects, day seven of ingestion (study day 9), p<0.0001 vs mean baseline), the “IOP on day seven of ingestion” value stood at 11.50±2.08. In addition, the “IOP on day three of ingestion” value with healthy male volunteers (eight subjects, day three of ingestion (study day 5), p<0.0001 vs mean baseline) was 12.48±1.48. The “subjects showing a decrease in IOP” value in the data set on healthy male volunteers (eight subjects, drop significant in seven individuals (<0.01)) was “All eight subjects showed a decrease in IOP”. In the data set on healthy male volunteers (mean of eight subjects, 100 mg orally three times a day for seven days, vs pre-IOP 14.7±1.39, p<0.000001), the “overall reduction in IOP” value was 18.2%. Moreover, the results for the “IOP of one subject vs days 1 and 2 (FIG. 3)” value in the data set on healthy male volunteers (day 5 (third day of ingestion)) and in the data set on healthy male volunteers (day 9 (seventh day of ingestion)) were “generally lower” and “even lower”, respectively. For the same molecule, in data set [1], the serum electrolytes result was “remained stable”. Moreover, in data set [1], the “systolic and diastolic blood pressures” value is “remained stable”.
